Results on 9 molecules are retold here after US20070149535A1, “Protein kinase inhibitors” (ONCALIS AG, priority 2004, published 2007).

Assay in all cases: Yeast growth assay, specificity profiling
Holding throughout (assay type): cell-based
Design in all cases: key: “−” indicates no growth restoration i.e. no activity against the particular kinase; “+”, “++”, and “+++” indicate activity detected by restoration of growth, classified into three categories of potency; “+”, “++”, and “+++” indicate activity detected by restoration of growth, classified into three categories of potency; “+”, “++”, and “+++” indicate activity detected by restoration of growth, classified into three categories of potency
Settings in all cases: 7 concentrations between 0.2 and 100 μM

One assay concerns the target T1, EphA2 (Homo sapiens, UniProt P29317).
T1 construct: expressed in transfected cells; host or cells: yeast
The method, boiled down:
(§1)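 Yeast positive-selection assay: RTK plasmid expression switched on by galactose suppresses growth; kinase inhibitors restore it. Potency classes derive from peak growth rescue and its concentration across a 0.2–100 μM, 7-point series.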

The target in another assay is T2, EphB4 (Homo sapiens, UniProt P54760).
T2 construct: expressed in transfected cells; host or cells: yeast
T2 sequence (P54760 16-987): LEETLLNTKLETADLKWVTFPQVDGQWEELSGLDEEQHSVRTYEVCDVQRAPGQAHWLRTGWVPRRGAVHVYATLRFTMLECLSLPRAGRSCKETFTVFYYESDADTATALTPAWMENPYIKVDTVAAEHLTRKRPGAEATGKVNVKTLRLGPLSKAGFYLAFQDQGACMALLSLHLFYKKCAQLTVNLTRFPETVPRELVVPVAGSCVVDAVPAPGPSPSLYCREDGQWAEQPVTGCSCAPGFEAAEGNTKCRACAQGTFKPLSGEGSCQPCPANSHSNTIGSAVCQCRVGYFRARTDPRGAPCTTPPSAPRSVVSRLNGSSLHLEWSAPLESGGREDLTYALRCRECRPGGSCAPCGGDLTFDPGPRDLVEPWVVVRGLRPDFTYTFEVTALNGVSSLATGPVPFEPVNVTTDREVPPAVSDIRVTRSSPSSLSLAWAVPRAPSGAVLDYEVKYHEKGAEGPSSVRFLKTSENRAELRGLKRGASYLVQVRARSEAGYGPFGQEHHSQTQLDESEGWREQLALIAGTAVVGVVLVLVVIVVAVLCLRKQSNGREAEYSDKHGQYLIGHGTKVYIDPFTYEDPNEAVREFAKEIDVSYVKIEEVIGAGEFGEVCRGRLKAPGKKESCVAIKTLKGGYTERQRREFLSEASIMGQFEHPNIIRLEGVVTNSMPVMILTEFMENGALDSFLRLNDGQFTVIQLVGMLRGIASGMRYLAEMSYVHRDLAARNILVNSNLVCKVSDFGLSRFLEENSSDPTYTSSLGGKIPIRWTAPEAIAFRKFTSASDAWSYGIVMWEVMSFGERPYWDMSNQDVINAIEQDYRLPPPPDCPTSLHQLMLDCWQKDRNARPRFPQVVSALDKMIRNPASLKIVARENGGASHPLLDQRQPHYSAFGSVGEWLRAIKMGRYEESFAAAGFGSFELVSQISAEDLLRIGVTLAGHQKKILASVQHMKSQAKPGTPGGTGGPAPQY
The method, boiled down:
as §1

Another assay has as its target T3, FGFR-1 (Homo sapiens, UniProt P11362).
T3 construct: expressed in transfected cells; host or cells: yeast
Summed up: as §1

The next assay deals with T4, FGFR-4 (Homo sapiens, UniProt P22455).
T4 construct: expressed in transfected cells; host or cells: yeast
The method, boiled down: as §1

The target in a further assay is T5, IGF-1R (Homo sapiens, UniProt P08069).
T5 construct: expressed in transfected cells; host or cells: yeast
The method, boiled down: as §1

Another assay concerns the target T6, InsR (Homo sapiens, UniProt P06213).
T6 construct: expressed in transfected cells; host or cells: yeast
Summed up: as §1

The target of another assay is T7, VEGFR1 (Homo sapiens, UniProt P17948).
T7 construct: expressed in transfected cells; host or cells: yeast
Summed up:
as §1

T1 sequence (P29317 24-976): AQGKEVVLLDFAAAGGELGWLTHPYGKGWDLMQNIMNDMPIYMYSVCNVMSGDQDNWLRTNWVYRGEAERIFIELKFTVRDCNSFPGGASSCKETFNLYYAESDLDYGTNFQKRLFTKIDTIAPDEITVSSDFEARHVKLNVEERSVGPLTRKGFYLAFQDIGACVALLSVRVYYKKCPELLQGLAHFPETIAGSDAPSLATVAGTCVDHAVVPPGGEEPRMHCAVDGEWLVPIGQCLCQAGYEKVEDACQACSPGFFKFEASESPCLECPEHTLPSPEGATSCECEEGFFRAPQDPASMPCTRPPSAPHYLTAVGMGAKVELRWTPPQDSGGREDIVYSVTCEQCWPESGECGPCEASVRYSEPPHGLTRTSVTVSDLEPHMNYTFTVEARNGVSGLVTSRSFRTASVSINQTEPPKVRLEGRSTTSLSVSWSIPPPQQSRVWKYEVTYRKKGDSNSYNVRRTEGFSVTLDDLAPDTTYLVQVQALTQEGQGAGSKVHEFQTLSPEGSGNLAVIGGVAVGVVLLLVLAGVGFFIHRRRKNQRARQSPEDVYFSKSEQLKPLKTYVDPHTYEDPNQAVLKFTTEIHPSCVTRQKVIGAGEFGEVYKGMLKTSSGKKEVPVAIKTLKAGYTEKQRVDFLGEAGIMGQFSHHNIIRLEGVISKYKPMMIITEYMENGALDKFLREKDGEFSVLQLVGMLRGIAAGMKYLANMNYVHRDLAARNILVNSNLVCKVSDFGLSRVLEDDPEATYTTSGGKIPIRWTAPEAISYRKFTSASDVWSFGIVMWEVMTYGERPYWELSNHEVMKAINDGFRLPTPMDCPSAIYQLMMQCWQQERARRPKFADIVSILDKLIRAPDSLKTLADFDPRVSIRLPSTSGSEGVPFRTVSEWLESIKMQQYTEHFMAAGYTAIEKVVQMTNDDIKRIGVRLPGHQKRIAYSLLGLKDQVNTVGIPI
T6 sequence (P06213 28-1382): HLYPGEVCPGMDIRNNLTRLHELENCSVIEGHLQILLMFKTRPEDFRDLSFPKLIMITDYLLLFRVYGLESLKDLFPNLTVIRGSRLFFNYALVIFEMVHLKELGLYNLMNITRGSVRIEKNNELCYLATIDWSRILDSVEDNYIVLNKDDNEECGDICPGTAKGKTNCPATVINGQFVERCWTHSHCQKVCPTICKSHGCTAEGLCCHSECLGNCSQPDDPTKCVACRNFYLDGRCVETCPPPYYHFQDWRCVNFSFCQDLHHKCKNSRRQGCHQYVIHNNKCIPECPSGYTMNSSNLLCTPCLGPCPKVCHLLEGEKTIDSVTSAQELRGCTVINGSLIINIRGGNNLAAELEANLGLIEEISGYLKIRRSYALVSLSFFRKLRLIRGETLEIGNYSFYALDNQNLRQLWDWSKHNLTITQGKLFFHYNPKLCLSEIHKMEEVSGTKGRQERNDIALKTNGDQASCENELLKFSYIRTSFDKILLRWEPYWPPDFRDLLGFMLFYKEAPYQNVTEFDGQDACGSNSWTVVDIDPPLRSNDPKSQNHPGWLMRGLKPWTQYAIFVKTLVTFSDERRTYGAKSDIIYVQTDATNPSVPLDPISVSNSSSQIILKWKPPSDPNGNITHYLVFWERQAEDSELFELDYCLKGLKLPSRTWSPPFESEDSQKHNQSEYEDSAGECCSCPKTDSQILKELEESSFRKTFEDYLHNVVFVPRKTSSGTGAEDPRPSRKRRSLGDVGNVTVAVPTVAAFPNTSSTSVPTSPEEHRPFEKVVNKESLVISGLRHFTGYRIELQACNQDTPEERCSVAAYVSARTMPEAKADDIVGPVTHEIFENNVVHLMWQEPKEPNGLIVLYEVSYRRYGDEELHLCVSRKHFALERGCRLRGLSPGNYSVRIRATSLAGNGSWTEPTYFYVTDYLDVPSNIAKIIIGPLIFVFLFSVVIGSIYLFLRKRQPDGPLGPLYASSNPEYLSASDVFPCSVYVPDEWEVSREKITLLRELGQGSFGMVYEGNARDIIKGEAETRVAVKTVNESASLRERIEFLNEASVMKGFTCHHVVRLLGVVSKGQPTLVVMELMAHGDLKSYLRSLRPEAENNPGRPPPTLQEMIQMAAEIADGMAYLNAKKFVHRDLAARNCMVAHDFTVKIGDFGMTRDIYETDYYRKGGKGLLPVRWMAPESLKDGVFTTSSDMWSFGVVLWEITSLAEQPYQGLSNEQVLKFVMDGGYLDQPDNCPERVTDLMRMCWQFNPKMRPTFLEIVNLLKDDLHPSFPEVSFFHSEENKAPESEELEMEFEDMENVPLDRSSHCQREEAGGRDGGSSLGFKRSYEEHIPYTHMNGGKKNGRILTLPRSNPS
T5 sequence (P08069 31-1367): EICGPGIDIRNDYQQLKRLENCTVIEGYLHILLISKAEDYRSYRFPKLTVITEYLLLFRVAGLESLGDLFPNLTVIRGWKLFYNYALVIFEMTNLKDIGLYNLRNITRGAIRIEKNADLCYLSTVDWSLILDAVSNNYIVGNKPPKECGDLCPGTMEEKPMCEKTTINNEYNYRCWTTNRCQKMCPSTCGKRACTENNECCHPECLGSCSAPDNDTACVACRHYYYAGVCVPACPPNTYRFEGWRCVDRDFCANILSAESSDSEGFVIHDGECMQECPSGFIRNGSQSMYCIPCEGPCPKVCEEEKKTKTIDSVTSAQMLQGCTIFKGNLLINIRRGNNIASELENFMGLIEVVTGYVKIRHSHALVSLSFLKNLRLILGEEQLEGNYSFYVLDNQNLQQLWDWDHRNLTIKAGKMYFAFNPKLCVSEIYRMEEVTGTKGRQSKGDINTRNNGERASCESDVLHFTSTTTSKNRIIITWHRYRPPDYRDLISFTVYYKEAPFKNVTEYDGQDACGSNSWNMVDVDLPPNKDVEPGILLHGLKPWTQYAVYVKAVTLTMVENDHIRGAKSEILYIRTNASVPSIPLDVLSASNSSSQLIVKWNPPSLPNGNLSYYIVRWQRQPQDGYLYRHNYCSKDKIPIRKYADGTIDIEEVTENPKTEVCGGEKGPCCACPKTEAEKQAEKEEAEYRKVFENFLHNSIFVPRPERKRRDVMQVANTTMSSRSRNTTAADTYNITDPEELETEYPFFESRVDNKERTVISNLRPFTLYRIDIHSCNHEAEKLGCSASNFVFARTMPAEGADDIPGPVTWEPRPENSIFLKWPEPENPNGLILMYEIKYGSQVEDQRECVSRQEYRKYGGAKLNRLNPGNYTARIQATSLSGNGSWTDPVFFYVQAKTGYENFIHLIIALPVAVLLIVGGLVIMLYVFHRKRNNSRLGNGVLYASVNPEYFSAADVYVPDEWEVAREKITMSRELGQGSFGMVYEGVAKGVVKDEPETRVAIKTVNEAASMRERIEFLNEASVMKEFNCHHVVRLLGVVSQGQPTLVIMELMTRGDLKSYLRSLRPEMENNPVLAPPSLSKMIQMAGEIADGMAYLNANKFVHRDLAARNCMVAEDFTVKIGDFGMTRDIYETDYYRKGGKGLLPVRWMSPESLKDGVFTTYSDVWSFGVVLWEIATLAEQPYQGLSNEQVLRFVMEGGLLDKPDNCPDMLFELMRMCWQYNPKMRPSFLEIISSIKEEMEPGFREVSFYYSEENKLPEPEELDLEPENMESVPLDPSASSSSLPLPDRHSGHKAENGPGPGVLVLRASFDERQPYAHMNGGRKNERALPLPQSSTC
T4 sequence (P22455 22-802): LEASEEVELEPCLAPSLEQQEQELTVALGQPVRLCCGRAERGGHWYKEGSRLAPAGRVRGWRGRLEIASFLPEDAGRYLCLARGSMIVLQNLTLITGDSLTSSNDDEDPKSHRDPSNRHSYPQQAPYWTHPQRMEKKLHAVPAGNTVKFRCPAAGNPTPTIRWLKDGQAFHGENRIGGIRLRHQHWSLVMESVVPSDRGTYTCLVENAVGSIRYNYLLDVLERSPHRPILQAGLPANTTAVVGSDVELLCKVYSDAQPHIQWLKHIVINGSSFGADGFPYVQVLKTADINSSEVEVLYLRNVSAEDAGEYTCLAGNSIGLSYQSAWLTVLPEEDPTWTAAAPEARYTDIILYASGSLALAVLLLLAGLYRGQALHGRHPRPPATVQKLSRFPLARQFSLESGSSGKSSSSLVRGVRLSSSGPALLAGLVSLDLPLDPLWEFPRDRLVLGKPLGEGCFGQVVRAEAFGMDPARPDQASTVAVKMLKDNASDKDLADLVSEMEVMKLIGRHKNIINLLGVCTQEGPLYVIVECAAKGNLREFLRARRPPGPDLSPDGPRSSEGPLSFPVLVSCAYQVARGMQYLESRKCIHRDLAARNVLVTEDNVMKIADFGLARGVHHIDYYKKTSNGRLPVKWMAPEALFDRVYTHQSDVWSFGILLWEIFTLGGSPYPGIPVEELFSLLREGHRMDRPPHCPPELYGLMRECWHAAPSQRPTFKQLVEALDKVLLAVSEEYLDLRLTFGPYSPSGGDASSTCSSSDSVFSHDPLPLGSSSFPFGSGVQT

For the molecule `Brc1cccc(Nc2c(-c3ccccc3)nc3cnccn23)c1` [compound 14, (3-Bromo-phenyl)-(2-phenyl-imidazo[1,2-a]pyrazin-3-yl)-amine], the EphA2 growth restoration entry on EphA2 is recorded as “−”. For the same molecule, the EphB4 growth restoration result at EphB4 is “−”. The FGFR-1 growth restoration result at FGFR-1 was “−”. Further, the FGFR-4 growth restoration entry on FGFR-4 is listed as “−”. At IGF-1R, the IGF-1R growth restoration result is reported as “−”. Moreover, the InsR growth restoration entry on InsR is listed as “−”. In addition, at VEGFR1, the VEGFR1 growth restoration entry is “−”.

For the molecule `Clc1ccc(Nc2c(-c3ccccc3)nc3cnccn23)cc1` [compound 16, (4-Chloro-phenyl)-(2-phenyl-imidazo[1,2-a]pyrazin-3-yl)-amine], the EphA2 growth restoration result at EphA2 is on record as “−”. For the same molecule, the EphB4 growth restoration result at EphB4 is recorded as “+”. At FGFR-1, the FGFR-1 growth restoration entry is “−”. Besides, the FGFR-4 growth restoration entry at FGFR-4 was “−”. Besides, the IGF-1R growth restoration entry at IGF-1R is “−”. Further, at InsR, the InsR growth restoration result was “−”. Also, the VEGFR1 growth restoration result on VEGFR1 is reported as “−”.

For the molecule `c1ccc(Nc2c(-c3ccccc3)nc3cnccn23)cc1` [compound 23, Phenyl-(2-phenyl-imidazo[1,2-a]pyrazin-3-yl)-amine], on EphA2, the EphA2 growth restoration entry was “+”. Besides, the EphB4 growth restoration result at EphB4 is given as “++”. The FGFR-1 growth restoration entry at FGFR-1 is given as “−”. Further, the FGFR-4 growth restoration entry at FGFR-4 is given as “−”. In addition, the IGF-1R growth restoration entry on IGF-1R is on record as “−”. At InsR, the InsR growth restoration result was “−”. For the same molecule, on VEGFR1, the VEGFR1 growth restoration entry is recorded as “−”.

Turning to `Cc1cccc(Nc2c(-c3ccccc3)nc3cnccn23)c1` [compound 34, (2-Phenyl-imidazo[1,2-a]pyrazin-3-yl)-m-tolyl-amine], at EphA2, the EphA2 growth restoration entry is recorded as “−”. For the same molecule, the EphB4 growth restoration result on EphB4 is “+ −”. Further, on FGFR-1, the FGFR-1 growth restoration result was “−”. Besides, on FGFR-4, the FGFR-4 growth restoration entry was “−”. Further, the IGF-1R growth restoration result on IGF-1R is “−”. Besides, the InsR growth restoration entry on InsR is “−”. In addition, the VEGFR1 growth restoration result on VEGFR1 is recorded as “−”.

As for `Clc1cccc(Nc2c(-c3ccccc3)nc3cnccn23)c1` [compound 35, (3-Chloro-phenyl)-(2-phenyl-imidazo[1,2-a]pyrazin-3-yl)-amine], on EphA2, the EphA2 growth restoration entry was “−”. The EphB4 growth restoration result at EphB4 is reported as “+”. In addition, the FGFR-1 growth restoration entry on FGFR-1 was “−”. Moreover, at FGFR-4, the FGFR-4 growth restoration result was “−”. Also, the IGF-1R growth restoration result on IGF-1R was “−”. Also, the InsR growth restoration entry at InsR is given as “−”. In addition, the VEGFR1 growth restoration entry at VEGFR1 is recorded as “−”.

For `Cc1nccn2c(Nc3ccccc3)c(-c3ccccc3)nc12` [compound 39, (8-Methyl-2-phenyl-imidazo[1,2-a]pyrazin-3-yl)-phenyl-amine], the EphA2 growth restoration entry at EphA2 is on record as “+”. Also, the EphB4 growth restoration result on EphB4 is listed as “+++”. For the same molecule, the FGFR-1 growth restoration entry on FGFR-1 is listed as “−”. For the same molecule, the FGFR-4 growth restoration result on FGFR-4 was “−”. The IGF-1R growth restoration entry on IGF-1R was “−”. Besides, the InsR growth restoration entry at InsR is recorded as “−”. Besides, the VEGFR1 growth restoration entry on VEGFR1 is “−”.

With `Cc1cccc(Nc2c(-c3ccccc3)nc3c(C)nccn23)c1` [compound 43, (8-Methyl-2-phenyl-imidazo[1,2-a]pyrazin-3-yl)-m-tolyl-amine], the EphA2 growth restoration entry at EphA2 was “−”. Also, the EphB4 growth restoration result at EphB4 is reported as “+++”. The FGFR-1 growth restoration result at FGFR-1 is recorded as “−”. For the same molecule, the FGFR-4 growth restoration entry on FGFR-4 is on record as “−”. Besides, the IGF-1R growth restoration entry on IGF-1R is “−”. Further, the InsR growth restoration result on InsR is listed as “−”. Besides, the VEGFR1 growth restoration entry at VEGFR1 is given as “−”.

For `Cc1nccn2c(Nc3cccc(F)c3)c(-c3ccccc3)nc12` [compound 44, (3-Fluoro-phenyl)-(8-methyl-2-phenyl-imidazo[1,2-a]pyrazin-3-yl)-amine], the EphA2 growth restoration entry at EphA2 is recorded as “−”. Also, at EphB4, the EphB4 growth restoration entry is “+++”. Also, the FGFR-1 growth restoration result at FGFR-1 was “−”. Further, at FGFR-4, the FGFR-4 growth restoration result is “−”. Moreover, the IGF-1R growth restoration entry at IGF-1R is “−”. Besides, at InsR, the InsR growth restoration entry was “−”. Moreover, the VEGFR1 growth restoration result on VEGFR1 is “−”.

`Cc1nccn2c(Nc3ccc(F)c(F)c3)c(-c3ccccc3)nc12` [compound 45, (3,4-Difluoro-phenyl)-(8-methyl-2-phenyl-imidazo[1,2-a]pyrazin-3-yl)-amine]: the EphA2 growth restoration result at EphA2 is listed as “−”. Further, at EphB4, the EphB4 growth restoration result is “+++”. For the same molecule, at FGFR-1, the FGFR-1 growth restoration entry is listed as “−”. The FGFR-4 growth restoration result on FGFR-4 is listed as “−”. On IGF-1R, the IGF-1R growth restoration entry is reported as “−”. In addition, the InsR growth restoration result on InsR is given as “−”. The VEGFR1 growth restoration result at VEGFR1 is recorded as “−”.
